From US20120251643A1, “ANTI-DIABETIC EXTRACT OF HONEYBUSH” (Zadec ApS, priority 2007, published 2012)

Tests used:
[1] = tested on: diabetic rats (T1D and T2D); experiment: Flavonoids and extract administered to diabetic rats; assay type: in vivo; details: for results in diabetic rats compared with the extract: extracted and fractionated from Cyclopia
Protocol: The flavonoids specifically used were mangiferin and hesperidin.
Experiments with diabetic test animals (rats) were carried out.

[2] = Bioassay of purified fractions for anti-diabetic activity
From the text: The partially purified active extract may be dissolved in methanol, and may be further fractionated by column chromatography, employing silica gel as an adsorption medium and a chloroform/30% methanol mixture as an eluent. A plurality of different fractions may be obtained, and each may be evaluated, by suitable bioassaying procedures, to determine the anti-diabetic activity thereof.
A fraction having anti-diabetic activity may preferably be further fractionated such as by column chromatography using silica gel as an adsorption medium and a 9:1 chloroform:methanol solvent, and the resultant sub-fractions bioassayed for their anti-diabetic activity. A sub-fraction displaying anti-diabetic activity may, if desired, be further fractionated and purified, conveniently using a column chromatographic procedure with silica gel as the adsorption medium and a 9:1 ethylacetate:hexane solvent. The resultant purified fractions may again be evaluated by suitable bioassay procedures for their anti-diabetic activity.

| Compound | results in diabetic rats compared with the extract [1] | anti-diabetic activity of purified fraction [2] | lowering of blood sugar and diabetic symptoms ([1]; both T1D and T2D rats) |
| --- | --- | --- | --- |
| COc1ccc([C@@H]2CC(=O)c3c(O)cc(O[C@@H]4O[C@H](CO[C@@H]5O[C@@H](C)[C@H](O)[C@@H](O)[C@H]5O)[C@@H](O)[C@H](O)[C@H]4O)cc3O2)cc1O [hesperidin, 7-[[6-O-(6-deoxy-α-L-mannopyranosyl)-β-D-glucopyranosyl]oxy]-2,3-dihydro-5-hydroxy-2-(3-hydroxy-4-methoxyphenyl)-4H-1-benzopyran-4-on] | results similar to those produced by the extract | – | – |
| O=c1c2cc(O)c(O)cc2oc2cc(O)c([C@@H]3O[C@H](CO)[C@@H](O)[C@H](O)[C@H]3O)c(O)c12 [mangiferin] | results similar to those produced by the extract | superior anti-diabetic activity | effective in lowering the blood sugar and generally alleviating diabetic symptoms |
